System: oedème généralisé au dextran
Test: generalized dextran oedema test (anti-inflammatory activity, oral, rat)
Type: in vivo

SMILES	activité anti-inflammatoire (même type) (administration par voie orale chez le rat, concentration and vehicle not stated)	propriétés anti-inflammatoires (test de l'oedème généralisé au dextran) (solution à 1 % dans l'huile d'arachide, voie orale chez le rat, by action on the vascular phase and decrease of platelet aggregation)
CCC(C)CCCCCCCCCC(=O)O (centres unmarked) [acide antéisomyristique, acide méthyl-11 tridécanoique]	Le même type d'activité anti-inflammatoire a été mis en évidence	–
CC(C)CCCCCCCCCCC(=O)O [acide isomyristique, acide méthyl-12 tridécanoTque]	–	propriétés anti-inflammatoires marquées

Source: patent EP0153203A1, “C10-C20-Branched-chain fatty acids useful as medicaments and the preparation thereof” (PIERRE FABRE MEDICAMENT, priority 1984, dated 1985)
